The results in this text go back to US8680012B2, “4-phenyl-pyrane-3,5-diones,4-phenyl-thiopyrane-3,6-diones and cyclohexanetriones as novel herbicides” (Syngenta Crop Protection LLC, priority 2006, dated 2014).

Assay type in all cases: in vivo
For assay [1], the system named is Solanum nigrum (SOLNI). Kind of assay: Example B pre-emergence herbicidal activity, glasshouse pot test. Conditions: 312 h, evaluated after 13 days, read-out: Pre-emergence activity SOLNI (100=total damage to plant; 0=no damage to plant); for pest or weed control at 1000 g/ha: rate 1000 g/ha. Summed up: (§1)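 One day (pre) or eight days (post) after sowing, pots received a spray of test compound formulated in acetone/water 50:50 with 0.5% Tween 20; plants were then kept under controlled glasshouse conditions with watering twice daily and assessed for damage (0–100) at 13 days.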

The subject of assay [2] is Echinochloa crus-galli (ECHCG). The assay is described as above. Conditions: 312 h, evaluated after 13 days, read-out: Pre-emergence activity ECHCG (100=total damage to plant; 0=no damage to plant); for pest or weed control at 1000 g/ha: rate 1000 g/ha. Summed up: as §1
In assay [3] the test system is Setaria faberi (SETFA). The assay is described as above. Conditions: 312 h, evaluated after 13 days, read-out: Pre-emergence activity SETFA (100=total damage to plant; 0=no damage to plant); for pest or weed control at 1000 g/ha: rate 1000 g/ha. An outline of the steps: as §1
Assay [4] concerns Alopecurus myosuroides (ALOMY). Described as above. Conditions: 312 h, evaluated after 13 days, read-out: Pre-emergence activity ALOMY (100=total damage to plant; 0=no damage to plant); for pest or weed control at 1000 g/ha: rate 1000 g/ha. Summed up: as §1
The test system of assay [5] is Avena fatua (AVEFA). The description is as above. Conditions: 312 h, evaluated after 13 days, read-out: Pre-emergence activity AVEFA (100=total damage to plant; 0=no damage to plant); for pest or weed control at 1000 g/ha: rate 1000 g/ha. An outline of the steps: as §1
The subject of assay [6] is Amaranthus retroflexus (AMARE). The description is as above. To be noted: 312 h, evaluated after 13 days, read-out: Pre-emergence activity AMARE (100=total damage to plant; 0=no damage to plant); for pest or weed control at 1000 g/ha: rate 1000 g/ha. Summed up:
as §1

For assay [7], the system named is Solanum nigrum (SOLNI). Briefly: Example B post-emergence herbicidal activity, glasshouse pot test. To be noted: 312 h, evaluated after 13 days, read-out: Post-emergence activity SOLNI (100=total damage to plant; 0=no damage to plant); for pest or weed control at 1000 g/ha: rate 1000 g/ha. An outline of the steps: as §1
For assay [8], the system named is Echinochloa crus-galli (ECHCG). The assay is described as above. Conditions: 312 h, evaluated after 13 days, read-out: Post-emergence activity ECHCG (100=total damage to plant; 0=no damage to plant); for pest or weed control at 1000 g/ha: rate 1000 g/ha. An outline of the steps:
as §1

In assay [9] the test system is Setaria faberi (SETFA). Described as above. To be noted: 312 h, evaluated after 13 days, read-out: Post-emergence activity SETFA (100=total damage to plant; 0=no damage to plant); for pest or weed control at 1000 g/ha: rate 1000 g/ha. An outline of the steps:
as §1

The subject of assay [10] is Alopecurus myosuroides (ALOMY). The description is as above. To be noted: 312 h, evaluated after 13 days, read-out: Post-emergence activity ALOMY (100=total damage to plant; 0=no damage to plant); for pest or weed control at 1000 g/ha: rate 1000 g/ha. Summed up: as §1
The test system of assay [11] is Avena fatua (AVEFA). The assay is described as above. To be noted: 312 h, evaluated after 13 days, read-out: Post-emergence activity AVEFA (100=total damage to plant; 0=no damage to plant); for pest or weed control at 1000 g/ha: rate 1000 g/ha. An outline of the steps: as §1
The test system of assay [12] is Amaranthus retroflexus (AMARE). The description is as above. Conditions: 312 h, evaluated after 13 days, read-out: Post-emergence activity AMARE (100=total damage to plant; 0=no damage to plant); for pest or weed control at 1000 g/ha: rate 1000 g/ha. An outline of the steps: as §1

Take `CCc1ccc(-c2cnc(Cl)cc2C)cc1C1=C(O)C(C)(C)C(=O)C(C)(C)C1=O` [Compound B-28]: the pest or weed control at 250 g/ha in [1] (rate 250 g/ha), in assay [2] (rate 250 g/ha), in assay [3] (rate 250 g/ha), in [4] (rate 250 g/ha), in assay [5] (rate 250 g/ha) and in [6] (rate 250 g/ha) was 0% each time. For the same molecule, the pest or weed control at 250 g/ha turned out to be 0% in [7] (rate 250 g/ha); 70% in assay [8] (rate 250 g/ha); 70% in assay [9] (rate 250 g/ha); 0% in assay [10] (rate 250 g/ha); 0% in [11] (rate 250 g/ha); 0% in assay [12] (rate 250 g/ha).
Regarding `Cc1ccc(-c2ccc(Cl)nc2C)cc1C1=C(O)C(C)(C)OC(C)(C)C1=O` [Compound A-56], the pest or weed control at 1000 g/ha turned out to be 20% in assay [1]; 30% in assay [2]; 0% in [3]; 10% in [4]; 40% in assay [5]; 0% in assay [6]. Besides, the pest or weed control at 1000 g/ha in assay [7] came out at 20%; in [8], 80%; in assay [9], 80%; in [10], 80%; in [11] it was 50%; in assay [12], 20%.
For `CCc1ccc(-c2ccc(Cl)cc2)cc1C1=C(OC(=O)OC(C)C)C(C)(C)OC(C)(C)C1=O` [Compound D-17], the pest or weed control at 1000 g/ha in [1] was determined as 0%; in [2] it was 80%; in assay [3], 90%; in [4], 20%; in assay [5], 0%; in [6], 0%. Moreover, the pest or weed control at 1000 g/ha in [7] amounted to 0%; in assay [8] it was 100%; in [9], 100%; in [10] it was 60%; in assay [11] it was 20%; in [12] it was 10%.
In the case of `CCc1ccc(-c2ccc(Cl)cc2)cc1C1=C(O)[C@@]2(C)CC[C@H](O2)C1=O` (single isomer, unassigned) [Compound A-29], the pest or weed control at 1000 g/ha in [1] is 0%; in [2] it was 100%; in assay [3], 100%; in assay [4], 90%; in assay [5] it was 80%; in assay [6], 0%. Besides, the pest or weed control at 1000 g/ha in assay [7] was determined as 60%; in assay [8], 100%; in assay [9], 100%; in assay [10], 100%; in assay [11], 100%; in assay [12] it was 40%.
Consider `CCc1ccc(-c2ccc(Cl)cc2)cc1C1=C(OC(=O)OCC(C)C)C(C)(C)OC(C)(C)C1=O` [Compound D-14], for which the pest or weed control at 1000 g/ha in assay [1] is 0%; in assay [2] it was 60%; in assay [3], 90%; in assay [4] it was 50%; in assay [5] it was 20%; in [6], 0%. Also, the pest or weed control at 1000 g/ha was 0% in [7]; 100% in [8]; 100% in [9]; 20% in assay [10]; 10% in [11]; 0% in assay [12].
Regarding `CCc1ccc(-c2ccc(Cl)cc2)cc1C1=C(OC(=O)CCOC)C(C)(C)OC(C)(C)C1=O` [Compound D-21], the pest or weed control at 1000 g/ha was determined as 0% in [1]; 100% in assay [2]; 100% in [3]; 90% in assay [4]; 50% in [5]; 0% in assay [6]. The pest or weed control at 1000 g/ha in assay [7] turned out to be 30%; in assay [8], 100%; in [9], 100%; in assay [10] it was 100%; in assay [11], 90%; in assay [12], 10%.
Turning to `CCc1ccc(-c2ccc(Cl)cc2)cc1C1=C(OC(=O)C(C)C)C(C)(C)OC(C)(C)C1=O` [Compound D-9], the pest or weed control at 1000 g/ha in [1] amounted to 0%; in assay [2], 70%; in assay [3] it was 90%; in assay [4], 20%; in [5], 0%; in assay [6] it was 0%. Also, the pest or weed control at 1000 g/ha was 0% in assay [7]; 100% in assay [8]; 90% in [9]; 30% in assay [10]; 0% in [11]; 0% in assay [12].
On to `CCc1ccc(-c2ccc(Cl)cc2)cc1C1=C(OC(C)=O)C(C)(C)OC(C)(C)C1=O` [Compound D-7], for which the pest or weed control at 1000 g/ha in assay [1] worked out at 0%; in assay [2], 90%; in [3] it was 100%; in assay [4], 60%; in assay [5] it was 30%; in assay [6], 0%. For the same molecule, the pest or weed control at 1000 g/ha in [7] amounted to 0%; in assay [8], 100%; in assay [9], 100%; in assay [10], 90%; in [11], 70%; in [12], 0%.
Consider `Cc1ccc(-c2ccc(Oc3ccccc3)cc2)cc1C1=C(O)C(C)(C)OC(C)(C)C1=O` [Compound A-16], for which the pest or weed control at 1000 g/ha in assay [1] was determined as 0%; in assay [2], 100%; in assay [3] it was 100%; in assay [4], 30%; in assay [5], 20%; in [6] it was 0%. Also, the pest or weed control at 1000 g/ha stood at 10% in assay [7]; 100% in [8]; 100% in assay [9]; 30% in assay [10]; 30% in assay [11]; 40% in [12].
